For 18 molecules, EC30 and IC50 results are on record in patent US9346761B2, “Arginine methyltransferase inhibitors and uses thereof” (Epizyme, Inc., priority 2013, dated 2016).

Read-outs that look alike come from different tables or passages of the source.

As a reminder, the EC30 is the concentration at which the effect reaches the 30% level. The IC50 is the concentration at which inhibition is half-maximal.

Test [1] deals with mono-methyl arginine in RKO cells. Nature of the test: RKO methylation assay, In Cell Western for mono-methyl arginine and DNA content. The test is classed as cell-based. Conditions: Homo sapiens.
The target in a further test is T1, Full-length human PRMT3 (Homo sapiens, UniProt O60678).
T1 construct: GST-tagged PRMT3; made in house; host or cells: E. coli BL21(DE3) Gold (pGEX-KG)
Nature of the test: PRMT3 biochemical assay (3H-SAM Flashplate, peptide substrate). The procedure, abridged: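 GST-tagged full-length PRMT3 (0.5 nM, E. coli-expressed) preincubated 30 min at room temperature with compound, then 330 nM biotinylated peptide, 100 nM 3H-SAM plus 1.8 uM SAM in Bicine pH 7.6, 2% DMSO.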

Setting [2] is: In Cell Western, RKO cells, 72 hours, percent activation of mono-methyl arginine signal, read-out: EC30.

T1 sequence (O60678 with tags, fused parts or gaps): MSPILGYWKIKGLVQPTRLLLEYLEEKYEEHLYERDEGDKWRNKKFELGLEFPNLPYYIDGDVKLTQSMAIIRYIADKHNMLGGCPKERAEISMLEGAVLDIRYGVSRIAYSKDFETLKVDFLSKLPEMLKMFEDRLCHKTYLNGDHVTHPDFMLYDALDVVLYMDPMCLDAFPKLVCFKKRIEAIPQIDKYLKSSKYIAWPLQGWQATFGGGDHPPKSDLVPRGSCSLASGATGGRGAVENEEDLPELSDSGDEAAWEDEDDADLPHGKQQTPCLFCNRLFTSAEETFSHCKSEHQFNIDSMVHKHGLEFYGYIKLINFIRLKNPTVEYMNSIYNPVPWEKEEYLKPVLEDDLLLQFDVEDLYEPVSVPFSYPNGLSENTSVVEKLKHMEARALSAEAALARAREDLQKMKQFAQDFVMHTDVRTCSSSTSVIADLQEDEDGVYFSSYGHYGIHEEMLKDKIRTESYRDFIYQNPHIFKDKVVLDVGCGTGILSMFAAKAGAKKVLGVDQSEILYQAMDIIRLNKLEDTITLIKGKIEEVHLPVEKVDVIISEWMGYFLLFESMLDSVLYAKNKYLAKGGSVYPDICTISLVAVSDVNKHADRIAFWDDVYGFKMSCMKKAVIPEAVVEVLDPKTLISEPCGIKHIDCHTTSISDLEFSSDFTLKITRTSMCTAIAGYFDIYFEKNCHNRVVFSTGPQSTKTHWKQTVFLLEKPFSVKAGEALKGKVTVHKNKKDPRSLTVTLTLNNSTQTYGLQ

Turning to `CNCCN(C)Cc1c[nH]nc1-c1ccc(F)cc1F` [Compound 49], the EC30 in test [1] (setting [2]) is more than 12 µM. Also, the IC50 against Full-length human PRMT3 lay in the range of 3.01 to 10 µM.

Regarding `CNCCN(C)Cc1c[nH]nc1-c1cc(Cl)ccc1OC` [Compound 53], the EC30 in test [1] (setting [2]) is more than 12 µM. On Full-length human PRMT3, this molecule registered an IC50 of more than 10 µM.

As for `CC(C)Oc1ccc(-c2n[nH]cc2CN(C)CCN)cc1` [Compound 67], the EC30 in test [1] (setting [2]) was more than 12 µM. Also, the IC50 against Full-length human PRMT3 fell in the range of 3.01 to 10 µM.

For `CN(CCN)Cc1c[nH]nc1-c1ccccc1` [Compound 73], the EC30 in test [1] (setting [2]) is more than 12 µM. On Full-length human PRMT3, this molecule registered an IC50 of more than 10 µM.

Turning to `Cc1ccc(-c2n[nH]cc2CN(C)CCN)c(Cl)c1` [Compound 90], the EC30 in test [1] (setting [2]) lay in the range of 3.01 to 12 µM. At Full-length human PRMT3, this molecule yielded an IC50 of 3.01 to 10 µM.

In test [1] (RKO, 72 h), `COCCn1ncc(CN(C)CCN(C)C)c1-c1ccc(F)cc1` [Compound 64] gave an EC30 of more than 12 µM. Further, the IC50 against Full-length human PRMT3 was more than 10 µM.

With `CNCCN(C)Cc1c[nH]nc1-c1cc(F)ccc1F` [Compound 50], the EC30 in test [1] (setting [2]) was more than 12 µM. Further, on Full-length human PRMT3, the IC50 was more than 10 µM.

Turning to `CNCCN(C)Cc1c[nH]nc1-c1cccc(OC)c1OC` [Compound 54], the EC30 in test [1] (setting [2]) is more than 12 µM. In addition, the half-maximal inhibitory concentration (IC50) against Full-length human PRMT3 is more than 10 µM.

As for `CN(CCN)Cc1c[nH]nc1-c1ccc(F)cc1Cl` [Compound 89], in test [1] (setting [2]), the EC30 was 3.01 to 12 µM. This molecule also yielded an IC50 at Full-length human PRMT3 of 3.01 to 10 µM.

As for `CNCCN(C)Cc1c[nH]nc1-c1ccc(-c2ccccc2)cc1` [Compound 47], the EC30 in test [1] (setting [2]) is less than 3 µM. This molecule also came in with an IC50 on Full-length human PRMT3 of 0.101 to 1 µM.

As to `CN(CCN)Cc1c[nH]nc1-c1ccc(C(F)(F)F)cc1C(F)(F)F` [Compound 85], in test [1] (RKO, 72 h), the EC30 is more than 12 µM. On Full-length human PRMT3, this molecule showed an IC50 of more than 10 µM.

`CNCCN(C)Cc1cn(CCC(O)CO)nc1-c1ccc(F)cc1` (stereo not drawn) [Compound 59]: in test [1] (setting [2]), the 30% effect concentration (EC30) is more than 12 µM. For the same molecule, the IC50 on Full-length human PRMT3 was more than 10 µM.

As for `CN(CCN)Cc1c[nH]nc1-c1ccc(C(F)(F)F)cc1` [Compound 92], the EC30 in test [1] (setting [2]) was less than 3 µM. The molecule also registered an IC50 against Full-length human PRMT3 of 3.01 to 10 µM.

With `CN(CCN)Cc1n[nH]cc1-c1ccc(F)cc1` [Compound 69], the EC30 in test [1] (setting [2]) is 3.01 to 12 µM. Also, the IC50 at Full-length human PRMT3 is more than 10 µM.

Turning to `CNCCN(C)Cc1c[nH]nc1-c1ccc(C(=O)c2ccccc2)cc1` [Compound 45], in test [1] (setting [2]), the EC30 was less than 3 µM. The same molecule returned an IC50 against Full-length human PRMT3 of 3.01 to 10 µM.

As to `NCCN(Cc1c[nH]nc1-c1ccc(F)cc1)C1CC1` [Compound 78], the concentration for an effect of 30% (EC30) in test [1] (setting [2]) was 3.01 to 12 µM. Besides, the IC50 against Full-length human PRMT3 is more than 10 µM.

Regarding `CNCCN(C)Cc1c[nH]nc1-c1ccc2ccccc2c1` [Compound 58], in test [1] (setting [2]), the EC30 is more than 12 µM. This molecule returned an IC50 on Full-length human PRMT3 of 3.01 to 10 µM.

Consider `CNCCN(C)Cc1c[nH]nc1-c1ccc(OC)cc1OC` [Compound 55], for which, in test [1] (setting [2]), the EC30 was more than 12 µM. The same molecule displayed an IC50 against Full-length human PRMT3 of more than 10 µM.
